Test results: US6767890B1, “Peptides having anti-cancer and anti-inflammatory activity” (priority 1998, dated 2004)
Values joined by “and” are separate entries in the source; they are usually repeats but may differ in a detail not shown here. Identical values can stand only once.

Legend:
[1] = molecular target: Protein Kinase C, Non-Select.; assay: Protein Kinase C, Non-Select. enzyme assay; assay type: biochemical, rat; conditions: historical value; read-out: ^1IC, (IC50 of reference compound)
Experimental: (§1) The peptide was further screened in vitro in a variety of enzyme and biochemical assays. Methods employed were adapted from the scientific literature to maximize reliability and reproducibility. The primary literature reference for each assay is listed in Table 11 opposite the results for each assay.
(§2) Results presented in Table 10, “Results,” are the average of duplicate determinations, unless otherwise noted.
(§3) Reference compounds were tested concurrently at 5 concentrations as an integral part of each assay to ensure the validity of the results obtained.
Enzyme assays were performed under conditions described in Table 8, “Experimental Conditions.”. The commercial suppliers and catalog numbers of substrates employed in this study are given in Table 7, “Material Sources.” The name, commercial source, and catalog numbers of concurrent reference compounds (controls) employed in this study are given in Table 9, “Reference Compound Data.” The reaction catalyzed by each enzyme is listed in Table 8, “Experimental Conditions.”
Biochemical assay results are presented in Table 10, as the percent inhibition of specific binding or activity, and unless noted are the average of duplicate tubes tested at each concentration.

[2] = test system: oxazolone-induced ear swelling; assay: Immune Suppression, Cellular (oxazolone ear thickness); assay type: in vivo, mouse; conditions: IP, Peptide 100 mg/kg × 5, Cyclophosphamide 30 mg/kg × 5
Experimental: (§4) For in vivo assay, distilled water and saline was used as vehicle in oral and intraperitoneal administration, respectively. Dosing volume was 20 ml/kg for mice or 10 ml/kg for rats.
Groups of 5 ICR derived male mice weighing 22±1 gms were used. The preshaved abdominal surface was sensitized by application of oxazolone 0.1 ml of 5% solution. […] After additional four days, the animals were challenged by secondary application of oxazolone (0.025 ml of 5% solution) to the right ear. After a further 24 hours, each mouse was sacrificed and ear thickness measured with a Dyer Model micrometer gauge. A 30 percent or more (≧30%) decrease relative to the vehicle control group was considered significant and indicated possible immunosuppressant activity.

PAF-induced mortality = assay: Platelet Activating Factor (PAF) Antagonism; assay type: in vivo, mouse; conditions: Peptide 100 mg/kg, WEB-2086 3 mg/kg
Experimental: as §4
Groups of 5 male ICR mice weighing 22±2 gms were employed. At dose of 100 mg/kg test substance dissolved in a vehicle of distilled water were administered orally. The control group received vehicle alone. At 60 minutes after dosing, the animals were injected intravenously PAF-acether ([…] IV, dissolved in 0.25% BSA). One hour later, the survival animals were recorded. The prevention of PAF-induced mortality in 50 percent or more (≧50%) of mice indicated significant activity.

Histamine H3 = molecular target: T1, Histamine H3 (Rattus norvegicus, UniProt Q9QYN8); assay: Histamine H3 radioligand binding; conditions: historical value
T1 construct: rat brain; from tissue; host or cells: rat brain
T1 sequence (Q9QYN8 whole entry): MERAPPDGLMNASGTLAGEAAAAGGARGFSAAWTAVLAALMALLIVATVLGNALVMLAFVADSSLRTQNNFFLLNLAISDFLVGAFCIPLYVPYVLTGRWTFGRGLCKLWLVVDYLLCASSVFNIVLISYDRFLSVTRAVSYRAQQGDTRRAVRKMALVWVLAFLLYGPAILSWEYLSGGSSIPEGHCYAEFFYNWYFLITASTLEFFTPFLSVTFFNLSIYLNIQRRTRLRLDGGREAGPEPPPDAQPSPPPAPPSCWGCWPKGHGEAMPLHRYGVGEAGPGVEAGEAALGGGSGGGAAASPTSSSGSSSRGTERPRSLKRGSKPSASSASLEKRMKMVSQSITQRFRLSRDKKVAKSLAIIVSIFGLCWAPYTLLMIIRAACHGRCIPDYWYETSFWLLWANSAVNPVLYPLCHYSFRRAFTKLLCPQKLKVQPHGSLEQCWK
Experimental: as §1, §2, §3
Radioligand binding assays were performed under conditions described in Table 8, “Experimental Conditions.” Radioligands employed in this study are given in Table 8, and commercial sources and catalog numbers of the radioligands are provided in Table 7, “Material Sources.” Unlabeled, blocking ligands employed this study are listed in Table 8, “Experimenal Conditions,” along with the commercial sources and catalog number of the unlabeled ligand. The concurrent reference compound (control) employed in each assay is listed in Table 9, “Reference Compound Data,” along with the commercial supplier and catalog number of the compound. […]
Maximum total binding and nonspecific binding were determined each time each assay was run. […]
Where inhibition constants (Ki) are presented, the Ki values were calculated using the equation of Cheng and Prusoff (Cheng, Y., Prusoff, W. H., Biochem. Pharmacol. […], 1973) using the observed IC50 of the tested compound, the concentration of radioligand employed in the assay, and the historical values for the Kd of the ligand (obtained experimentally). Where presented, the Hill Coefficient (nH), defining the scope of the competitive binding curve, was calculated using GraphPad Prism. […] Where IC50, Ki, and/or Hill Slope data is presented without Standard Error of the Mean (SEM), data are insufficient to be quantitative, and the values presented (Ki, IC50, nH) should be interpreted with caution. […]

[3] = test system: DNBS-induced distal colitis; assay: Inflammation, Inflammatory Bowel Disease (DNBS distal colitis); assay type: in vivo, rat; conditions: PO, Peptide 30 mg/kg × 7, Sulfasalazine 300 mg/kg × 7
Experimental: as §4
Groups of 3 Sprague-Dawley derived male rats weighing 150±20 gms and fasted for 24 hours were used. Distal colitis was induced by intra-colonic instillation of DNBS (2,4-dinitrobenzene sulfonic acid, 30 mg in 0.5 ml ethanol 30%) after which air (2 ml) was gently injected through the cannula to ensure that the solution remains in the colon. Test substance was administered PO (30 mg/kg) at 24 and 2 hours before DNBS instillation. Then, the animals received test compound every 24 hours for 5 consecutive days. The control group was given vehicle alone as compound dosing pattern. The animals were sacrificed 24 hours after the final dose of test compound administration and each colon was removed and weighed. Colon-to-body weight ratio was obtained from the percentage of the comparison between the animal colon weight and body weight on the 8th day. A 30 percent or more (±30%) reduction in colon-to-body weight ratio relative to the vehicle treated control group was considered significant.

[4] = test system: Adjuvant Induced Arthritis; assay: Adjuvant Induced Arthritis Model; assay type: in vivo; conditions: rat, 20 mg per KG body weight orally once per day for 14 days, Day 14
Experimental: Adjuvant Induced Arthritis Model: Male Sprague-Dawley rats (160-180 g) were sensitized by injecting Fruend's Complete Adjuvant (0.5% suspension of killed mycobacterium tuberculosis (H37RA, Difco in mineral oil)). 0.05 ml was administered intradermally at a plantar site on the right hind leg of each rat. The test materials were given orally (by gavage) in 0.5% methylcelluose, at a dose level of 20 milligrams per kilo body weight, and given once per day for 14 days. The administration was started the day after sensitization. The left hind paw was measured just before sensitization and on Day 14, and the plantar edema inhibitory rate and the body weight gain rate were determined in comparison with the nonsensitized rat groups. The paw weights for each group in each test run were averaged. Activity was calculated as follows: [formula]
The Anti-inflammatory response is the difference in the mean foot volume. […] FIG. 4.

[5] = test system: ovalbumin-induced bronchoconstriction; assay: Pulmonary, Histamine H3 (ovalbumin-induced bronchoconstriction); assay type: in vivo, guinea pig; conditions: Peptide PO 10 mg/kg, R-α-methylhistamine IV 30 mg/kg
Experimental: as §4
A group of Duncan Hartley derived male or female guinea pigs weighing 250±50 gms were anesthetized with pentobarbital sodium (50 mg/kg IP plus an additional 15 mg/kg IP if required) and succinylcholine chloride (2 mg/animal IP) was subsequently administered to prevent spontaneous respiration. Body temperature was maintained at 37° to 38° C. The trachea was cannulated and the guinea pig ventilated with a Harvard rodent respirator in a closed system. Tracheal pressure (TP) was recorded through a side-arm of the cannula connected to a P23ID Statham transducer. Respiratory rate set at 50 strokes/minute with a stroke volume (approximately 1 ml/100 g) sufficient to produce a baseline tracheal pressure of 6 cm H2O. Mean arterial pressure was monitored from a cannulated carotid artery, and heart rate was obtained from chest electrodes arranged for lead II. The jugular vein was cannulated for IV vehicle or drug administration in a volume of 1 ml/kg. Guinea pigs were sensitized with IP injections of ovalbumin 0.5 μg+Al(OH)3 1 mg (0.5 ml/animal) on days 1, and boosted with same dosage of ovalbumin and Al(OH)3 vaccine on day 8; and the animals were ready to be challenged between days 19 and 23 to get a submaximal ovalbumin (50 μg/kg IV)-induced bronchoconstriction, reflected as an increase in tracheal pressure (cm H2O). […]. Test substances were administered PO (10 mg/kg) at 60 minutes before ovalbumin (50 μg/kg IV) challenge in 3 guinea pigs. Tracheal pressure, blood pressure and heart rate were measured immediately before and after ovalbumin challenge.

histamine H3 receptor = molecular target: T2, histamine H3 receptor (Cavia porcellus, UniProt Q9JI35); assay: Histamine H3 Agonism/Antagonism, guinea pig ileum; assay type: cell-based; conditions: Peptide 30 μM, Thioperamide 0.3 μM; for Agonism, Ave.: R(α)-Methylhistamine 0.3 μM; for Agonism: relaxation within 5 minutes relative to 0.3 μM R-α-methylhistamine, R(α)-Methylhistamine 0.3 μM (0.1 printed in r13)
T2 construct: ileum obtained from Duncan Hartley derived male or female guinea pigs; from tissue; host or cells: guinea pig ileum segment, field-stimulated
T2 sequence (Q9JI35 whole entry): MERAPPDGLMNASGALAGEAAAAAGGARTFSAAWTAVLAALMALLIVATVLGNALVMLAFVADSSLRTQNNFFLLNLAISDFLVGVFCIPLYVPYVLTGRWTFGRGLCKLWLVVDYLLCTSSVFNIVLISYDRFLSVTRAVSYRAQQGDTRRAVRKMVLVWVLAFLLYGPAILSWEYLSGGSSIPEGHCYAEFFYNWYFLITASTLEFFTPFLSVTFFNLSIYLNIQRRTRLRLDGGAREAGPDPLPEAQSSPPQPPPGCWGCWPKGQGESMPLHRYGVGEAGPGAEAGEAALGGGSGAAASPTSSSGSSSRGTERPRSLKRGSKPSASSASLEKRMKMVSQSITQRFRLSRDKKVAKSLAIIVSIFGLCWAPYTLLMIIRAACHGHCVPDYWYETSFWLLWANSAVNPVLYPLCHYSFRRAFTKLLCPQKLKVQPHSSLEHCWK
Experimental: A segment of ileum obtained from Duncan Hartley derived male or female guinea pigs weighing 325±25 gms and sacrificed by CO2 overexposure were used. The tissue was placed under 0.5 g tension in a 10 ml bath containing Kreb's solution pH 7.4 and pyrilamine (0.3 μM) at 32° C. and subjected to field stimulation (70% of maximum voltage, 0.1 Hz, 0.5 millisecond). Test substance (30 μM)-induced reduction of isometrically recorded contractions 50 percent or more (≧50%) within 5 minutes, relative to control 0.3 μM R-α-methylhistamine response, indicated possible histamine H3 receptor agonist activity. At a test substance concentration where no significant agonist activity was seen, ability to inhibit R-α-methylhistamine-induced response by 50 percent or more (≧50%) indicated histamine H3 receptor antagonist activity. Each concentration was tested on two separate preparations.

Sarcoma 180 tumor = assay: Anti-Cancer Activity Against Mouse Tumor Sarcoma 180; assay type: in vivo; conditions: 10 mg/kg
Experimental: This model has been used extensively as indicative of neovascularization in mammals inasmuch as the tumor so implanted is quickly vascularizing.
Experimental Design: All mice were weighed at test initiation and test termination. The animals were divided into three groups. The Sarcoma 180 tumor was made up from a passage mouse to furnish […] per 0.1 mL inoculum. The cells were injected into the left leg hamstring muscle mass. The was delivered to the mice by I.P. injections, or gavage on days 1-5.
At the termination of the experiments, the mice were weighed and the left rear leg was amputated at the thigh. The skin was removed from the leg to expose the site at which the tumor was located. […].

Molecule: CC1CNCCN1S(=O)(=O)c1cccc2cnccc12 (stereo not drawn) [Peptide H-7, reference compound]
- IC50 [1]: 35 µM

Molecule: O=P1(N(CCCl)CCCl)NCCCO1 (stereo not drawn) [Cyclophosphamide, Cyclophosphamide Monohydrate]
- % INH. ([2]; decrease of net ear thickness relative to vehicle control): 51%
- Thickness Net, X (group mean) ([2]; group mean): 13.4 × 0.1 mm
- Thickness Net ([2]; individual mouse, R. Ear minus L. Ear, Monohydrate): 16 × 0.1 mm and 10 × 0.1 mm and 14 × 0.1 mm and 7 × 0.1 mm and 20 × 0.1 mm
- Thickness R. Ear ([2]; individual mouse, challenged right ear, 24 hours after oxazolone challenge, Monohydrate): 38 × 0.1 mm and 26 × 0.1 mm and 32 × 0.1 mm and 23 × 0.1 mm and 40 × 0.1 mm
- Thickness L. Ear ([2]; individual mouse, left ear, Monohydrate): 22 × 0.1 mm and 16 × 0.1 mm (2×) and 18 × 0.1 mm and 20 × 0.1 mm

Molecule: Cc1nnc2n1-c1sc(CCC(=O)N3CCOCC3)cc1C(c1ccccc1Cl)=NC2 [WEB-2086, reference compound]
- % Protection (PAF-induced mortality; PO one hour before PAF-acether 100 μg/kg IV): 60%
- No. of Survival (PAF-induced mortality; of 5 mice, one hour after PAF-acether 100 μg/kg IV, PO one hour before): 3

Molecule: CNCCc1cnc[nH]1 [NAMH]
- IC50 (Histamine H3; read-out: ^1IC, (IC50 of reference compound)): 2.9 nM
- Ki (Histamine H3; read-out: ^1K1 (Ki of reference ligand)): 0.75 nM

Molecule: O=C(O)c1cc(/N=N/c2ccc(S(=O)(=O)Nc3ccccn3)cc2)ccc1O [Sulfasalazine]
- Ratio Net ([3]; group mean minus blank-control): 0.181%
- Ratio Ind., X (group mean) ([3]; group mean): 0.551%
- Ratio Ind. (colon-to-body weight ratio) ([3]; individual rat, Colon (g)/8th B.W. × 100%): 0.496% and 0.508% and 0.650%
- % INH. ([3]; reduction in colon-to-body weight ratio relative to vehicle control): 49%

Molecule: CCCCC1C(=O)N(c2ccccc2)N(c2ccccc2)C1=O [Phenylbutazone]
- anti-inflammatory response (percent inhibition) [4]: 112.2%

Molecule: C[C@@H](N)Cc1c[nH]cn1 [R (α)-Methylhistamine, R-α-Methyl histamine, reference compound]
- Inc. of TP X ± SEM ([5]; group mean, N=3): 11.3 ± 7.2 cm H2O
- Inc. of TP Ind. ([5]; individual guinea pig, tracheal pressure after ovalbumin 50 μg/kg IV): 8.5 cm H2O and 25.0 cm H2O and 0.5 cm H2O
- % INH. ([5]; inhibition of induced bronchoconstriction relative to vehicle): 61.6%
- Agonism, Ave. (histamine H3 receptor; average of two preparations): 100%
- Agonism (histamine H3 receptor; individual preparation): 100%

Molecule: C[C@]12CCC(=O)C=C1CC[C@@H]1[C@@H]2[C@@H](O)C[C@@]2(C)[C@H]1CC[C@]2(O)C(=O)CO [hydrocortisone]
- anti-inflammatory response (percent inhibition) [4]: 132.6%

Molecule: S=C(NC1CCCCC1)N1CCC(c2cnc[nH]2)CC1 [Thioperamide]
- Agonism, Ave. (histamine H3 receptor; average of two preparations): 0%
- Antagonism, Ave. (histamine H3 receptor; average of two preparations): 93%
- Antagonism (histamine H3 receptor; individual preparation, reduction of 0.3 μM R(α)-methylhistamine-induced relaxation): 90% and 96%
- Agonism (histamine H3 receptor; individual preparation): 0%

Molecule: LEU-PRO-PRO-SER-ARG [synthetic peptide (crude 60%)]
- % tumor inhibition (Sarcoma 180 tumor; I.P. injections or gavage on days 1-5, 6 mice): 58.6%
- Mean tumor wt. gain, gm (Sarcoma 180 tumor; net tumor weight, I.P. injections or gavage on days 1-5, 6 mice): 1.45 gm
